Measured values published in patent US20250171419A1, “NOVEL NICOTINAMIDE PHOSPHORIBOSYLTRANSFERASE INHIBITORS AND USES THEREOF” (Heidelberg Pharma Research GmbH, priority 2023, published 2025).
Where a name gives a salt, the structure may show the parent alone. One block for each compound: values may come before it.

Tests used:
[1] = Acid hydration stability (TFA, 37° C); type: physicochemical; details: for tendency of cyanoguanidine group to hydration and degradation: pH values below 2, formation of guanylurea intermediates
Description: Since the lysosomal pH is acidic and contains numerous hydrolases, NAMPT inhibitors bearing cyanoguanidines may therefore be degraded in the lysosome. […] The product was confirmed by mass spectrometry and NMR analysis. The inhibitor C42a was designed as an alternative to cyanoguanidine compounds containing urea as non-hydratable group.

[2] = test system: solid tumors; details: cited from earlier work
[3] = test system: human breast and lung cancer cell line-derived in vivo models; details: cited from earlier work
[4] = test system: murine renal cell carcinoma model RENCA; details: cited from earlier work
[5] = type: in vitro ADME, human
Procedure: The test compound was incubated at a concentration of 17.7 μM in a mixture of human liver lysosomal extract (tebu-bio, Seikisui Xenotech, Ref: H0610.L) and 1× catabolism buffer (tebu-bio, Seikisui Xenotech, Ref: K5200) for […] at 37° C. Samples were taken at 0, 2, 4, 24, 48, 72, 120, and 168 hours. Control samples without lysosomal extract were also set up under the same conditions as the test sample. All measurements and samples were taken in duplicate.
To measure the reaction, the compound was quenched by adding 380 μL of internal standard buffer (30 ng/mL of internal standard in ACN) to 20 μL of the sample. An amanitin-stable isotope-labelled analogue was used as the internal standard.
22 μL of the quenched sample was analysed using UPLC-MS-MS QTrap 5500 (Column: Waters ACQUITY UPLC BEH Amide, […], 2.1×100 mm, product code: 186004801). This assay was related to compound 113. Compound 113 was expected to be the main degradation compound after lysosomal enzymatic digestion and was used as a reference for the detection of catabolites after digestion in the HPLC-MS analysis.
The ion fragments detection method was multiple reaction monitoring (MRM). In this method, the mass is measured by a tandem mass spectrometer where the initial molecular ion is selected as initial mass. […]

[6] = test system: L540 CD30+ cell line; assay: Cytotoxicity in L540 CD30+ cell line, CellTiter-Glo 2.0 readout after 96 h; type: cell-based; details: FIG. 10 C

Structure (SMILES): N#CNC(=Nc1ccncc1)NCCCCCCOc1ccc(Cl)cc1 [CHS-828, N-[6-(4-chlorophenoxy)hexyl]-N′-cyano-N″-4-pyridinyl-guanidine]
- observed responses in the clinical trials [2]: stable disease
- cytotoxic effects in vitro and in vivo [3]: highly cytotoxic effects

Structure (SMILES): O=C(/C=C/c1cccnc1)NCCCCC1CCN(C(=O)c2ccccc2)CC1 [Daporinad, (E)-N-[4-(1-benzoylpiperidin-4-yl)butyl]-3-(pyrldine-3-yl)-acrylamide]
- in vivo efficacy [4]: In vivo efficacy of daporinad was shown

Structure (SMILES): N#C/N=C(\NCCCCC1CCN(C(=O)c2cccc(N)c2)CC1)Nc1cccnc1 [compound 36, (E)-1-(4-(1-(3-aminobenzoyl)piperidin-4-yl)butyl)-2-cyano-3-(pyridin-3-yl)guanidine]
- hydration of the cyanoguanidine moiety under acid pH ([1]; acid pH): undergoes hydration of the cyanoguanidine moiety to guanylurea
- acid hydration reaction involving TFA, pH above 2 ([1]; pH values above 2, after 48 hours at 37° C): the reaction did not occur
- acid hydration reaction involving TFA, pH below 2 ([1]; pH values below 2, within 24 hours at 37° C): guanylurea 113 was obtained in excellent yield
- tendency of cyanoguanidine group to hydration and degradation [1]: tend towards hydration and degradation
- degradation in the absence of lysosomal enzymes [5]: no degradation is observed
- degradation versus generation of the hydrated product 113 [5]: inversely correlates

Structure (SMILES): NC(=O)/N=C(\NCCCCC1CCN(C(=O)c2cccc(N)c2)CC1)Nc1cccnc1 [compound 113, (E)-1-(((4-(1-(3-aminobenzoyl)piperidin-4-yl)butyl)amino)(pyridin-3-ylamino)methylene)urea]
- toxicity in L540 cells compared to inhibitor 36 [6]: significantly reduced toxicity

Now from value to compound:

- tendency of cyanoguanidine group to hydration and degradation [1]: tend towards hydration and degradation
Structure (SMILES): N#C/N=C(\NCCCCC1(O)CCN(C(=O)c2cccc(N)c2)CC1)Nc1cccnc1 [C22a, (E)-1-(4-(1-(3-aminobenzoyl)-4-hydroxypiperidin-4-yl)butyl)-2-cyano-3-(pyridin-3-yl)guanidine]

- time stable under the conditions that triggered the hydration of 36 ([1]; identical conditions as those that triggered the hydration of 36): more than 2 weeks
- hydration at pH values below 2 ([1]; pH values below 2 at 37° C for more than 2 weeks): no hydration
Structure (SMILES): Nc1cccc(C(=O)N2CCC(O)(CCCCNC(=O)N3Cc4ccccc4C3)CC2)c1 [C42a, N-(4-(1-(3-aminobenzoyl)-4-hydroxypiperidin-4-yl)butyl)isoindoline-2-carboxamide TFA salt]
